Assay results taken from US5101072A, “Sulfonylhydrazines and their use as antineoplastic agents and as antitrypanosomal agents” (Yale University, priority 1989, dated 1992).

Columns and labels:
L1210 leukemia = test: Survival time of mice bearing the L1210 leukemia; type: in vivo; conditions: for 60-day cures, % / % T/C (average survival time of treated/control animals × 100): L1210, at optimum effective daily dose, once daily × 6 days; for AvΔ Wt, % (average change in body weight from onset to termination of therapy): mice bearing L1210, at optimum effective daily dose
Description: The tumor-inhibitory properties of several compounds, e.g., 1,2-bis(methylsulfonyl)-1-methylhydrazine, 1-methyl-1,2,2-tris(methylsulfonyl)hydrazine, 1,2-bis(methylsulfonyl)-1,2-dimethylhydrazine and 1-(2-chloroethyl)-1,2,2-tris(methylsulfonyl)hydrazine were determined by measuring the effects of these agents on the survival time of mice bearing the L1210 leukemia as described by K. Shyam, L. A. Cosby, and A. C. Sartorelli, J. Med. Chem., 28, 525-527 (1985).
^a Administered once daily for 6 consecutive days, beginning 24 hours
after tumor transplantation with 5-10 animals being used per group.
^b Average change in body weight from onset to termination of therapy
^c % T/C = average survival time of treated/control animals ×

[1] = system: T. rhodesiense (Y Tat 1.1); test: Survival time of CD-1 mice infected with T. rhodesiense (trypanocidal activity); type: in vivo, T. rhodesiense (Y Tat 1.1); CD-1 mice
Description: The trypanocidal properties of several methylating agents including MeSO2 N(Me)N(SO2 Me)2 and MeSO2 N(Me)N(Me)SO2 Me were determined by measuring their effects on the survival time of CD-1 mice infected with T. rhodesiense (Y Tat 1.1), a pleimorphic strain that produces a non-relapsing disease in mice. The level of parasites in the bloodstream and body fluids increases by approximately 10-fold per day and the animals die when the parasite burden exceeds 1 to 2×10^9 cells/ml. Infection with a single viable parasite will kill a mouse in approximately 9 to 10 days.
Mice were infected ip with approximately 10^6 trypanosomes/mouse in phosphate buffered saline containing glucose. This level of parasites produces death in 4 days post-infection. These mice were treated (ip) with a single dose of drug dissolved in the appropriate vehicle 3 days after infection, when the parasitemia was 1 to 3×10^8 cells/ml of blood and the mice, if untreated, would survive for only 24 additional hours. The number of days the mice survived beyond that of the untreated controls was used as a measure of trypanocidal activity. The level of parasitemia in treated mice was measured at regular intervals to distinguish between parasite-related and drug toxicity-related deaths. No toxic deaths were observed. Mice that survived for 30 days without detectable parasitemias were considered cured. The effects of a single dose of various methylating agents on the survival time of trypanosome-bearing mice are summarized in Table II.
^a Drug that was administered was dissolved in 0.5 ml of phosphate
buffered saline containing glucose.
^b Drug that was administered was dissolved in 0.05 ml of DMSO.

[2] = single ip dose 0.2 mmol/kg in 0.5 ml phosphate buffered saline containing glucose
[3] = single ip dose 0.2 mmol/kg in 0.05 ml of DMSO

## CS(=O)(=O)N(N(CCCl)S(=O)(=O)c1ccc(Br)cc1)S(C)(=O)=O [Br-4-C6 H4 SO2 N(CH2 CH2 Cl)N(SO2 Me)2, 2,2-Bis(methylsulfonyl)-1-[(4-bromophenyl)sulfonyl]-1-(2-chloroethyl)hydrazine]
L1210 leukemia
  60-day cures, %: 60%
  % T/C (average survival time of treated/control animals × 100): 241%
  AvΔ Wt, % (average change in body weight from onset to termination of therapy): +0.9%

## CS(=O)(=O)N(N(CCCl)S(=O)(=O)c1ccccc1)S(C)(=O)=O [C6 H5 SO2 N(CH2 CH2 Cl)N(SO2 Me)2, 2,2-bis(methylsulfonyl)-1-(2-chloroethyl)-1-phenylsulfonylhydrazine]
L1210 leukemia
  60-day cures, %: 40%
  % T/C (average survival time of treated/control animals × 100): 187%
  AvΔ Wt, % (average change in body weight from onset to termination of therapy): +0.5%

## CS(=O)(=O)N(N(CCCl)S(=O)(=O)c1ccc(Cl)cc1)S(C)(=O)=O [Cl-4-C6 H4 SO2 N(CH2 CH2 Cl)N(SO2 Me)2, 2,2-Bis(methylsulfonyl)-1-(2-chloroethyl)-1-[(4-chlorophenyl)sulfonyl]hydrazine]
L1210 leukemia
  60-day cures, %: 60%
  % T/C (average survival time of treated/control animals × 100): 203%
  AvΔ Wt, % (average change in body weight from onset to termination of therapy): -3.4%

## CN(C)N=Nc1[nH]cnc1C(N)=O [DTIC, 5-(3,3-dimethyl-1-triazenyl)-1H-imidazole-4-carboxamide]
[1]; [2]
  Mean Extension of Life: 6.0 days

## CCOS(=O)(=O)OCC [Et2 SO4]
[1]; [3]
  Mean Extension of Life: 0 days

## CCNNCC [EtNHNHEt]
[1]; [2]
  Mean Extension of Life: 0 days

## COS(=O)(=O)OC [Me2 SO4]
[1]; [3]
  Mean Extension of Life: 3.0 days

## Cc1ccc(S(=O)(=O)N(CCCl)N(S(C)(=O)=O)S(C)(=O)=O)cc1 [Me-4-C6 H 4 SO2 N(CH2 CH2 Cl)N(SO2 Me)2, 2,2-bis(methylsulfonyl)-1-(2-chloroethyl)-1-(4-toluenesulfonyl)hydrazine]
L1210 leukemia
  60-day cures, %: 60%
  % T/C (average survival time of treated/control animals × 100): 215%
  AvΔ Wt, % (average change in body weight from onset to termination of therapy): -12.0%

## CNN [MeNHNH2, methylhydrazine]
[1]; single ip dose 0.5 mmol/kg in 0.5 ml phosphate buffered saline containing glucose
  Mean Extension of Life: 1 days

## CNNC [MeNHNHMe, 1,2-dimethylhydrazine]
[1]; [2]
  Mean Extension of Life: 4.3 days

## COc1ccc(S(=O)(=O)N(CCCl)N(S(C)(=O)=O)S(C)(=O)=O)cc1 [MeO-4-C6 H4 SO2 N(CH2 CH2 Cl)N(SO2 Me)2, 2,2-Bis(methylsulfonyl)-1-(2-chloroethyl)-1-[(4-methoxyphenyl)sulfonyl]hydrazine]
L1210 leukemia
  60-day cures, %: 100%
  AvΔ Wt, % (average change in body weight from onset to termination of therapy): +5.9%

## CS(=O)(=O)N(CCBr)N(S(C)(=O)=O)S(C)(=O)=O [MeSO2 N(CH2 CH2 Br)N(SO2 Me)2, 1-(2-bromoethyl)-1,2,2-tris(methylsulfonyl)hydrazine]
L1210 leukemia
  60-day cures, %: 0%
  % T/C (average survival time of treated/control animals × 100): 213%
  AvΔ Wt, % (average change in body weight from onset to termination of therapy): -2.0%
